According to patent US20110039721A1, “METHOD FOR PREDICTION ABOUT CARCINOGENICITY OF SUBSTANCE IN RODENT” (Chemicals Evaluation and Research Institute, priority 2007, published 2011):

Key:
[1] = tested on: mRNA expressed from the genes (A) to (D) in rat liver; assay: Behavior of genes (mRNA expression level, oligo-DNA microarray) in rat liver after 28-day oral administration; format: in vivo; details: mRNA vs vehicle control group
How it was run: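 Oral gavage, once daily × 28 days; male F344 SPF rats, 5 wk, n=4/group; vehicle controls given equal solvent volume. Liver excised day 28, total RNA purified. Significance: ≥1.5× or ≤1/1.5 of vehicle, direction concordant with other carcinogens.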

liver = details: classification of the substance (Cr+/Cr−); cited from earlier work
rodent = details: classification of the substance (C+/C−); cited from earlier work
[2] = classification of the substance (M+/M−); cited from earlier work
[3] = gene group (A), Unigene No. Rn.167075
[4] = gene group (C), Unigene No. Rn.120914

Structure (SMILES): Cn1c(N)nc2ncc(-c3ccccc3)cc21 [TS045, 2-amino-1-methyl-6-phenylimidazo[4,5-b]-pyridine]
- Behavior of gene caused by administration of chemical substance, Gene No. 4846 ([1]; gene group (A), Unigene No. Rn.144554): −
- Behavior of gene caused by administration of chemical substance, Gene No. 2026 [1, 3]: −
- Behavior of gene caused by administration of chemical substance, Gene No. 4218 [1, 3]: −
- Behavior of gene caused by administration of chemical substance, Gene No. 6182 ([1]; gene group (A), Unigene No. Rn.5834): −
- Behavior of gene caused by administration of chemical substance, Gene No. 5600 ([1]; gene group (A), Unigene No. Rn.9836): −
- Behavior of gene caused by administration of chemical substance, Gene No. 1494 ([1]; gene group (B), Unigene No. Rn.1430): −
- Behavior of gene caused by administration of chemical substance, Gene No. 2045 ([1]; gene group (B), Unigene No. Rn.19329): +
- Behavior of gene caused by administration of chemical substance, Gene No. 2203 ([1]; gene group (B), Unigene No. Rn.21240): +
- Behavior of gene caused by administration of chemical substance, Gene No. 533 ([1]; gene group (C), Unigene No. Rn.106184): −
- Behavior of gene caused by administration of chemical substance, Gene No. 725 ([1]; gene group (C), Unigene No. Rn.108075): −
- Behavior of gene caused by administration of chemical substance, Gene No. 1163 ([1]; gene group (C), Unigene No. Rn.11766): −
- Behavior of gene caused by administration of chemical substance, Gene No. 4973 ([1]; gene group (C), Unigene No. Rn.118529): −
- Behavior of gene caused by administration of chemical substance, Gene No. 4095 ([1]; gene group (C), Unigene No. Rn.119024): −
- Behavior of gene caused by administration of chemical substance, Gene No. 1334 [1, 4]: −
- Behavior of gene caused by administration of chemical substance, Gene No. 6620 [1, 4]: −
- Behavior of gene caused by administration of chemical substance, Gene No. 6303 ([1]; gene group (C), Unigene No. Rn.123063): −
- Behavior of gene caused by administration of chemical substance, Gene No. 5878 ([1]; gene group (C), Unigene No. Rn.143213): −
- Behavior of gene caused by administration of chemical substance, Gene No. 1131 ([1]; gene group (C), Unigene No. Rn.144946): −
- Behavior of gene caused by administration of chemical substance, Gene No. 1562 ([1]; gene group (C), Unigene No. Rn.14744): −
- Behavior of gene caused by administration of chemical substance, Gene No. 1741 ([1]; gene group (C), Unigene No. Rn.1647): −
- Behavior of gene caused by administration of chemical substance, Gene No. 893 ([1]; gene group (C), Unigene No. Rn.164817): −
- Behavior of gene caused by administration of chemical substance, Gene No. 6026 ([1]; gene group (C), Unigene No. Rn.167685): −
- Behavior of gene caused by administration of chemical substance, Gene No. 154 ([1]; gene group (C), Unigene No. Rn.185941): −
- Behavior of gene caused by administration of chemical substance, Gene No. 1993 ([1]; gene group (C), Unigene No. Rn.18728): −
- Behavior of gene caused by administration of chemical substance, Gene No. 813 ([1]; gene group (C), Unigene No. Rn.201760): −
- Behavior of gene caused by administration of chemical substance, Gene No. 2494 ([1]; gene group (C), Unigene No. Rn.23969): +
- Behavior of gene caused by administration of chemical substance, Gene No. 2546 ([1]; gene group (C), Unigene No. Rn.24561): −
- Behavior of gene caused by administration of chemical substance, Gene No. 3776 ([1]; gene group (C), Unigene No. Rn.43232): −
- Behavior of gene caused by administration of chemical substance, Gene No. 3929 ([1]; gene group (C), Unigene No. Rn.4620): −
- Behavior of gene caused by administration of chemical substance, Gene No. 1119 ([1]; gene group (C), Unigene No. Rn.9757): −
- Behavior of gene caused by administration of chemical substance, Gene No. 6742 ([1]; gene group (C), Unigene No. Rn.9779): −
- Behavior of gene caused by administration of chemical substance, Gene No. 5634 ([1]; gene group (C), Unigene No. Rn.9862): −
- Behavior of gene caused by administration of chemical substance, Gene No. 5726 ([1]; gene group (D), Unigene No. Rn.9939): +
- Liver carcinogenicity (liver): Cr−
- Carcinogenicity (rodent): C+
- Mutagenicity by Ames test [2]: M+
